In the assay the test system is 883617-216-R-J1-PDC complex spheroid viability. Description: Anticancer human tumor 883617-216-R-J1-PDC patient-derived bladder carcinoma cell line growth inhibition [POLQ]. Conditions: for viability, T/C: stronger effect = lower value. Here is the method:
Multicellular complex tumor spheroid response to Polymerase (POL) inhibitors (novobiocin, ART-558, RP6685) in combination with a variety of drugs and investigational agents in selected tumor cell lines
The POL inhibitors (novobiocin, ART-558, and RP6685) were evaluated both individually and in combination with standard of care and investigational anticancer small molecules within a complex spheroid model of solid tumors. . Complex spheroids include a stromal component modeled by human endothelial cells (HUVEC) and fibroblasts modeled by human mesenchymal stem cells (MSCs). The concentration ranges selected for each drug and investigational agent were based upon clinically achievable concentrations if the clinical Cmax of the agent was known.
Compounds. The drugs and investigational agents: novobiocin (NSC847541), ART-558 (NSC835418), RP-6685 (NSC848927), peposertib (NSC802822), ceralasertib (NSC780249), elimusertib (NSC800525), camonsertib (NSC841442), AZD-1390 (NSC803789), olaparib (NSC753686), talazoparib (NSC767125), rucaparib (NSC756644), sotorasib (NSC818433), MRTX-1133 (NSC836407), SN-38 (NSC673596), topotecan (NSC609699), epotoside (NSC141540), doxorubicin (NSC123127), gemcitabine (NSC613327), 5-fluorouracil (NSC19893), paclitaxel (NSC125973), vemurafenib (NSC761431), MSA-2 (NSC828583), SN-011 (NSC837082), adavosertib (NSC754352), prexasertib (NSC758257), carboplatin (NSC241240) and oxaliplatin (NSC266046), were obtained from the National Cancer Institute (NCI) Developmental Therapeutics Program Chemical Repository (21). The FDA-approved anticancer drug set is available from the Developmental Therapeutics Program at https://dtp.cancer.gov/organization/dscb/obtaining/. […] The stock solutions were prepared in dimethyl sulfoxide (DMSO, Sigma-Aldrich, St. Louis, MO, cat. D2650), except for the platinum compounds which were prepared in saline (Quality Biological, Gaithersburg, MD, cat. 114-055-101), at 800-fold the tested concentration and stored at -70 degrees C prior to their use. All drugs and investigational agents were tested over a range starting from a high concentration at or near the clinical Cmax and decreasing in half-log increments. If the clinical Cmax for an agent had not been determined, the highest concentration tested was 10 microM, except for SN-38, which was tested at a high concentration of 1 microM.
Cell Culture. All cells were maintained in an incubator at 37 degrees C and 5% CO2 with 95% humidity. The PDC lines were cultured according to standard operating procedures established by the NCI PDMR (https://pdmr.cancer.gov). Table 3 of the manuscript, lists the cell lines along with the number of the three cell types plated to form the mct-spheroids and media for tumor cell growth. After thawing, all PDC lines, except 997537-175-T-J1-PDC and 415267-285-R-J2-PDC, were cultured in Matrigel-coated flasks prepared with a working solution of 1X Ham's F-12 nutrient mix, without supplementation (Thermo Fisher Scientific, cat. 11765054), 100 U/mL penicillin-streptomycin (Thermo Fisher Scientific, cat. 15140122), and 2.5% Matrigel (Corning Inc., Corning, NY, cat. 354248) for the first three passages. The two PDC lines 997537-175-T-J1-PDC and 415267-285-R-J2-PDC were cultured on uncoated flasks. The 857933-349-R-J2-PDC line was cultured in 6C/Colon 1B media containing advanced DMEM/F-12 (Thermo Fisher Scientific, cat. 12634028), 10 mM HEPES (Thermo Fisher Scientific, cat. 15630080), 1X GlutaMAX supplement (Thermo Fisher Scientific, cat. 35050061), 0.1 mg/mL primocin (InvivoGen, San Diego, CA, cat. ant-pm-2), 10% defined fetal bovine serum, heat inactivated (HyClone Laboratories Inc., Logan, UT, cat. SH30070.03HI), 50% L-WRN conditioned media (ATCC, cat. CRL-3276), 1.25 mM N-Acetyl-L-cysteine (Sigma-Aldrich, cat. A9165), 10 mM nicotinamide (Sigma-Aldrich, cat. N0636), 1X B-27 supplement (Thermo Fisher Scientific, cat. 17504044), 1X N-2 supplement (Thermo Fisher Scientific, cat. […]

Drawing on PubChem BioAssay AID1963833 (Molecular Pharmacology Branch, DTP, NCI, 2024), this text covers viability, T/C and IC50 for 10 compounds.

Each structure is given as a SMILES string. “And” between values parts separate entries of the source, which are not always exact repeats. Equal values may be shown once. Where only a bound is given, the exact number is not on record here.
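Also: spheroids exposed to compounds for seven days before readout.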

`C=CCn1c(=O)c2cnc(Nc3ccc(N4CCN(C)CC4)cc3)nc2n1-c1cccc(C(C)(C)O)n1`: the viability, T/C is 97.5% and 107% and 98.8% (compound 0.00316 µM); 100% and 96.8% and 90.3% (compound 0.01 µM); 100% and 108% and 112% (compound 0.0316 µM); 107% and 87.8% and 93.7% (compound 0.1 µM); 85.4% and 72.3% and 92.5% (compound 0.316 µM); 48.6% and 50.2% and 50.6% (compound 1 µM). Also, the IC50 (curve of compound) was 960 nM and > 1000 nM.

For the compound `CC(=O)O[C@H]1C(=O)[C@@]2(C)[C@H]([C@H](OC(=O)c3ccccc3)[C@]3(O)C[C@H](OC(=O)[C@H](O)[C@@H](NC(=O)c4ccccc4)c4ccccc4)C(C)=C1C3(C)C)[C@]1(OC(C)=O)CO[C@@H]1C[C@@H]2O`, the viability, T/C is 44.9% and 57% and 43.1% (compound 0.00949 µM); 32.5% and 35.8% and 26.7% (compound 0.03 µM); 22.9% and 26.7% and 15.8% (compound 0.0949 µM); 30.6% and 21.1% and 24.6% (compound 0.3 µM); 28.4% and 23.5% and 25.1% (compound 0.949 µM); 26.5% and 19.3% (2×) (compound 3 µM). The concentration for half-maximal inhibition (IC50) (curve of compound) was < 9.49 nM and 13.9 nM.

For the compound `CC(C)n1c(=O)n(C)c2cnc3cc(F)c(-c4ccc(OCCCN5CCCCC5)nc4)cc3c21`, the viability, T/C is 96% and 105% and 102% (compound 0.0316 µM); 90.3% and 101% and 98.8% (compound 0.1 µM); 112% and 103% and 111% (compound 0.316 µM); 106% and 108% and 94.5% (compound 1 µM); 87.5% and 84% and 102% (compound 3.16 µM); 52.9% and 72% and 69.1% (compound 10 µM). Besides, the half-inhibitory concentration (IC50) (curve of compound) was greater than 10000 nM.

In the case of `CC1COCCN1c1cc(-c2ccnn2C)c2ccnc(-c3ccn[nH]3)c2n1` (stereo not drawn), the viability, T/C was 83.5% and 90% and 77.5% (compound 0.0316 µM); 51.3% and 58.9% and 59.6% (compound 0.1 µM); 43.9% and 45.8% and 56.5% (compound 0.316 µM); 36.8% and 37.4% and 36.7% (compound 1 µM); 32.3% and 29.7% and 40.9% (compound 3.16 µM); 27.4% and 31.1% and 28.9% (compound 10 µM). For the same compound, under “curve of compound”, the IC50 is 151 nM and 210 nM and 393 nM.

Take `CC1COCCN1c1cc(C2(S(C)(=N)=O)CC2)nc(-c2ccnc3[nH]ccc23)n1` (stereo not drawn): the viability, T/C runs as follows: (compound 0.0316 µM) 98.9% and 101% and 87.7%; (compound 0.1 µM) 89.9% and 94.3% and 103%; (compound 0.316 µM) 98.4% and 83.1% and 84%; (compound 1 µM) 71% (2×) and 73.5%; (compound 3.16 µM) 54.2% and 53.8% and 48.3%; (compound 10 µM) 30.1% and 34.3% and 34.5%. Besides, the half-inhibitory concentration (IC50) (curve of compound) was 3500 nM and 4110 nM and 2820 nM.

As for `CCCS(=O)(=O)Nc1ccc(F)c(C(=O)c2c[nH]c3ncc(-c4ccc(Cl)cc4)cc23)c1F`, the viability, T/C (compound 0.0316 µM) was 107% and 115% and 95.1%; the viability, T/C (compound 0.1 µM) is 95.8% (2×) and 89.8%; the viability, T/C (compound 0.316 µM) was 102% and 90.4% and 116%; the viability, T/C (compound 1 µM) is 105% and 107% and 95.2%; the viability, T/C (compound 3.16 µM) was 79.3% and 101% and 95.3%; the viability, T/C (compound 10 µM) was 49.6% and 44.3% and 34.8%. Where the note is “curve of compound”, the IC50 is 9880 nM and 8910 nM and 7500 nM.

On to `CC[C@@]1(O)C(=O)OCc2c1cc1n(c2=O)Cc2cc3c(CN(C)C)c(O)ccc3nc2-1`, for which the viability, T/C reads like this: (compound 0.000316 µM) 97.3% and 105% and 101%; (compound 0.001 µM) 92.3% and 95.7% and 97%; (compound 0.00316 µM) 104% and 94.3% and 91.6%; (compound 0.01 µM) 83.4% and 88.9% and 88.8%; (compound 0.0316 µM) 65.8% and 77.7% and 65.3%; (compound 0.1 µM) 53.6% and 63.2% and 48.6%. Under “curve of compound”, the 50% inhibitory concentration (IC50) was > 100 nM and 89.8 nM.

With `CCc1c2c(nc3ccc(O)cc13)-c1cc3c(c(=O)n1C2)COC(=O)[C@]3(O)CC`, the viability, T/C by setting is: (compound 0.00316 µM) 60.2% and 77.9% and 72.8%; (compound 0.01 µM) 56.4% and 60.8% and 57.2%; (compound 0.0316 µM) 59.9% and 65.7% and 60.6%; (compound 0.1 µM) 48.4% and 64.6% and 47.4%; (compound 0.316 µM) 33.3% and 41.8% and 31.2%; (compound 1 µM) 18.5% and 31.8% and 23.8%. Where the note is “curve of compound”, the half-inhibitory concentration (IC50) was 95 nM and 220 nM and 63.1 nM.

In the case of `CNCc1ccc(-c2[nH]c3cc(F)cc4c3c2CCNC4=O)cc1`, the viability, T/C was 92.6% and 94.5% and 97.7% (compound 0.0316 µM); 92% and 95.6% and 100% (compound 0.1 µM); 96.7% and 92.8% and 89.4% (compound 0.316 µM); 96.9% and 93.2% and 104% (compound 1 µM); 95.2% and 98.2% and 99.7% (compound 3.16 µM); 77.3% and 88.2% and 74.5% (compound 10 µM). Further, the IC50 (curve of compound) was greater than 10000 nM.

Turning to `COC1C(OC(N)=O)C(O)C(Oc2ccc3c(O)c(NC(=O)c4ccc(O)c(CC=C(C)C)c4)c(=O)oc3c2C)OC1(C)C` (stereo not drawn), the viability, T/C runs as follows: (compound 0.0316 µM) 98.8% [middle of 13 runs]; (compound 0.1 µM) 99.7% [middle of 13 runs]; (compound 1 µM) 103% [middle of 13 runs]; (compound 3.16 µM) 100% [middle of 12 runs]. Also, the IC50 (compound alone, run of 01/08/2024) was greater than 10000 nM.

For orientation: viability, T/C means the result in the treated group divided by that in the control group, in per cent. In general, IC50 refers to the point on the concentration scale where inhibition reaches its midpoint.
